In data set [1] the target is T1, human 5-hydroxytryptamine-2C (h5-HT2C) receptor (Homo sapiens, UniProt P28335).
T1 construct: expressed in transfected cells; host or cells: CHO (Chinese Hamster Ovary) cells; membranes
T1 sequence (P28335 33-458): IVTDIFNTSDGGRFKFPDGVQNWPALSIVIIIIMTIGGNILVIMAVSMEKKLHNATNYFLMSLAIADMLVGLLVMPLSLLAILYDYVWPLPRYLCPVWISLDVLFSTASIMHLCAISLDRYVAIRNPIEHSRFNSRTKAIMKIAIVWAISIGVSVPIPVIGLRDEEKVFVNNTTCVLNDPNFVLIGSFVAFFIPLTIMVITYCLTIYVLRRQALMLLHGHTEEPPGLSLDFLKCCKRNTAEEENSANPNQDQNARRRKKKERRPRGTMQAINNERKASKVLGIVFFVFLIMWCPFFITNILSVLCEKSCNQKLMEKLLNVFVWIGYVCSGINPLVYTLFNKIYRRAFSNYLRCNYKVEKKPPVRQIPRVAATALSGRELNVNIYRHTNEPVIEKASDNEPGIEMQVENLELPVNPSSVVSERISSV
The experiment in a line: 5-HT2C binding: [125I]DOI displacement in membranes of transfected CHO cells.

Data set [2] has as its target T2, human 5-HT2C receptor (Homo sapiens, UniProt P28335).
T2 sequence (P28335 33-458): T1 sequence (P28335 33-458)
Nature of the data set: 5-HT2C receptor-stimulated calcium mobilization (FLIPR) in CHO cells. It is filed as cell-based. To be noted: for Emax: CHO, read-out: 5-HT2C Function EMax (%); for EC50: read-out: 5-HT2C Function EC50. (Calcium flux is commonly read through the fluorescence of an indicator in the cells.)

The mark [3] stands for this setting: read-out: 5-HT2C Binding Ki avg.

Counter-ions that a name gives are not always drawn. Like-named read-outs stand apart in the source and are kept apart here.

The record followed here is patent publication US20060241172A1, “Benzodioxane and benzodioxolane derivatives and uses thereof” (Wyeth, priority 2005, published 2006).

What is called melting point is the temperature of the solid-liquid transition. Take `COc1cccc(-c2cc(Cl)cc3c2OC(CN)O3)c1OC` (centres unmarked) (as salt: hydrochloride) [Compound I-95, [6-Chloro-4-(2,3-dimethoxy-phenyl)-benzo[1,3]dioxol-2-yl]-methylamine]: the melting point lay in the range of 228 to 230 °C.
Still for that read-out and setting: the same measure for `NCC1Oc2cc(Cl)cc(-c3ccc(Cl)cc3Cl)c2O1` (centres unmarked) (as salt: hydrochloride) [Compound I-96, [6-Chloro-4-(2,4-dichloro-phenyl)-benzo[1,3]dioxol-2-yl]-methylamine]: more than 250 °C; for `Cc1cc(Cl)ccc1-c1cc(Cl)cc2c1OC(CN)O2` (centres unmarked) (as salt: hydrochloride) [Compound I-97, [6-Chloro-4-(4-chloro-2-methyl-phenyl)-benzo[1,3]dioxol-2-yl]-methylamine]: more than 250 °C; for `NCC1Oc2cc(Cl)cc(-c3cc(Cl)ccc3Cl)c2O1` (centres unmarked) (as salt: hydrochloride) [Compound I-98, [6-Chloro-4-(2,5-dichloro-phenyl)-benzo[1,3]dioxol-2-yl]-methylamine]: 246 to 248 °C.
`NCC1Oc2cc(Cl)cc(-c3cc(F)ccc3F)c2O1` (centres unmarked) (as salt: hydrochloride) [Compound I-99, [6-Chloro-4-(2,5-difluoro-phenyl)-benzo[1,3]dioxol-2-yl]-methylamine]: the melting point was more than 250 °C.
Turning to `COc1ccc(OC)c(-c2cc(Cl)cc3c2OC(CN)O3)c1` (centres unmarked) (as salt: hydrochloride) [Compound I-100, [6-Chloro-4-(2,5-dimethoxy-phenyl)-benzo[1,3]dioxol-2-yl]-methylamine], the melting point lay in the range of 225 to 227 °C.
As to `NCC1Oc2cc(Cl)cc(-c3ccccc3-c3ccccc3)c2O1` (centres unmarked) (as salt: hydrochloride) [Compound I-101, [6-Chloro-4-biphenyl-benzo[1,3]dioxol-2-yl]-methylamine], the melting point was 196 to 198 °C.
For `NC[C@H]1COc2cccc(-c3c(Cl)cccc3Cl)c2O1` (as salt: salt) [Compound I-46, {[(2S)-8-(2,6-Dichlorophenyl)-2,3-dihydro-1,4-benzodioxin-2-yl]methyl}amine], the melting point fell in the range of 165 to 167 °C.
Consider `NC[C@H]1COc2cc(F)cc(-c3c(Cl)cccc3Cl)c2O1` (as salt: salt) [Compound I-47, {[(2S)-8-(2,6-Dichlorophenyl)-6-fluoro-2,3-dihydro-1,4-benzodioxin-2-yl]methyl}amine], for which the melting point is 165 to 167 °C.
On the same count and under the same terms, then `NCC1Oc2cc(Cl)cc(-c3ccccc3F)c2O1` (centres unmarked) (as salt: salt) [Compound I-93, [6-Chloro-4-(2-fluoro-phenyl)-benzo[1,3]dioxol-2-yl]-methylamine], with more than 250 °C.
A word on the Ki: it is the equilibrium dissociation constant of an inhibitor or competing ligand from its target. As a reminder, the Emax is the size of the effect at its maximum, as opposed to the concentration needed. As a reminder, the EC50 is the midpoint of the concentration-response curve. Regarding `NCC1COc2cccc(-c3ccccc3F)c2O1` (centres unmarked) [Compound I-2, {[8-(2-Fluorophenyl)-2,3-dihydro-1,4-benzodioxin-2-yl]methyl}amine], the Ki in data set [1] (setting [3]) was less than 50 nM. For the same compound, in data set [2], the Emax came out at 70% and the EC50 was less than 100 nM.
The corresponding values for `Cc1ccccc1-c1cccc2c1OC(CN)CO2` (centres unmarked) [Compound I-3, {[8-(2-Methylphenyl)-2,3-dihydro-1,4-benzodioxin-2-yl]methyl}amine] are less than 50 nM, 60% and less than 100 nM.
Take `COc1ccccc1-c1cccc2c1OC(CN)CO2` (centres unmarked) [Compound I-5, {[8-(2-Methoxyphenyl)-2,3-dihydro-1,4-benzodioxin-2-yl]methyl}amine]: the Ki in data set [1] (setting [3]) fell in the range of 50 to 200 nM. In data set [2], the Emax amounted to 60% and the EC50 was less than 100 nM.
The corresponding values for `NCC1COc2cccc(-c3cccc(Cl)c3Cl)c2O1` (centres unmarked) [Compound I-6, {[8-(2,3-Dichlorophenyl)-2,3-dihydro-1,4-benzodioxin-2-yl]methyl}amine] are 50 to 200 nM, 70% and 100 to 500 nM.
The corresponding values for `NCC1COc2cccc(-c3ccc(Cl)cc3Cl)c2O1` (centres unmarked) [Compound I-7, {[8-(2,4-Dichlorophenyl)-2,3-dihydro-1,4-benzodioxin-2-yl]methyl}amine] are less than 50 nM, 70% and less than 100 nM.
On to `C[C@]1(CN)COc2cccc(-c3ccccc3)c2O1` [Compound I-48, {[(2S)-2-Methyl-8-phenyl-2,3-dihydro-1,4-benzodioxin-2-yl]methyl}amine], for which, in data set [1] (setting [3]), the Ki was more than 200 nM.
Still for that read-out and setting: the same measure for `C[C@]1(CN)COc2cccc(-c3cccc(Cl)c3)c2O1` [Compound I-50, {[(2S)-8-(3-Chlorophenyl)-2-methyl-2,3-dihydro-1,4-benzodioxin-2-yl]methyl}amine]: more than 200 nM.
As for `C[C@]1(CN)COc2cccc(-c3ccc(Cl)cc3)c2O1` [Compound I-51, {[(2S)-8-(4-Chlorophenyl)-2-methyl-2,3-dihydro-1,4-benzodioxin-2-yl]methyl}amine], the Ki in data set [1] (setting [3]) was more than 200 nM.
The same measure, in the same setting: then `COc1ccccc1-c1cccc2c1O[C@@](C)(CN)CO2` [Compound I-52, {[(2S)-8-(2-Methoxyphenyl)-2-methyl-2,3-dihydro-1,4-benzodioxin-2-yl]methyl}amine], with more than 200 nM; and `C[C@]1(CN)COc2cccc(-c3ccsc3)c2O1` [Compound I-53, {[(2S)-2-Methyl-8-thien-3-yl-2,3-dihydro-1,4-benzodioxin-2-yl]methyl}amine], with more than 200 nM.
`NC[C@H]1COc2cccc(-c3ccccc3Cl)c2O1` [Compound I-56, 1-[(2S)-8-(2-CHLOROPHENYL)-2,3-DIHYDRO-1,4-BENZODIOXIN-2-YL]METHANAMINE]: in data set [1] (setting [3]), the Ki was less than 50 nM.
Still for that read-out and setting: the same measure for `Cc1cc(Cl)ccc1-c1cc(Cl)cc2c1O[C@@H](CN)CO2` [Compound I-65, (2S)-[6-Chloro-8-(4-chloro-2-methyl-phenyl)-2,3-dihydro-benzo[1,4]dioxin-2-yl]-methylamine]: less than 50 nM; for `COc1ccc(Cl)cc1-c1cc(Cl)cc2c1O[C@@H](CN)CO2` [Compound I-68, (2S)-[6-Chloro-8-(5-chloro-2-methoxy-phenyl)-2,3-dihydro-benzo[1,4]dioxin-2-yl]-methylamine]: 50 to 200 nM.
In the case of `Cc1ccccc1-c1c(Cl)ccc2c1O[C@@H](CN)CO2` [Compound I-72, ((2S)-7-Chloro-8-o-tolyl-2,3-dihydrobenzo[b][1,4]dioxin-2-yl)methanamine], in data set [1] (setting [3]), the Ki was less than 50 nM.
As for `NCC1Oc2cc(F)cc(-c3ccccc3)c2O1` (centres unmarked) [Compound I-77, 1-(6-Fluoro-4-phenyl-1,3-benzodioxol-2-yl)methanamine], in data set [1] (setting [3]), the Ki lay in the range of 50 to 200 nM.
Take `NCC1Oc2cc(F)cc(-c3cccc(Cl)c3)c2O1` (centres unmarked) [Compound I-78, 1-[4-(3-Chlorophenyl)-6-fluoro-1,3-benzodioxol-2-yl]methanamine]: the Ki in data set [1] (setting [3]) was 50 to 200 nM.
Regarding `NCC1Oc2cc(F)cc(-c3ccc(Cl)cc3)c2O1` (centres unmarked) [Compound I-79, 1-[4-(4-Chloro-phenyl)-6-fluoro-1,3-benzodioxol-2-yl]methanamine], the Ki in data set [1] (setting [3]) lay within 50 to 200 nM.
`CCNCC1Oc2cc(F)cc(-c3ccccc3Cl)c2O1` (centres unmarked) [Compound I-88, N-{[4-(2-Chlorophenyl)-6-fluoro-1,3-benzodioxol-2-yl]methyl}ethanamine]: the inhibition constant Ki in data set [1] (setting [3]) lay within 50 to 200 nM.
For `CN(C)CC1Oc2cc(F)cc(-c3ccccc3Cl)c2O1` (centres unmarked) [Compound I-89, 1-[4-(2-chlorophenyl)-6-fluoro-1,3-benzodioxol-2-yl]-N,N-dimethylmethanamine], in data set [1] (setting [3]), the Ki was 50 to 200 nM.
For the compound `COc1ccccc1-c1cc(Cl)cc2c1OC(CN)O2` (centres unmarked) [Compound I-92, [6-Chloro-4-(2-methoxy-phenyl)-benzo[1,3]dioxol-2-yl]-methylamine], the Ki in data set [1] (setting [3]) lay within 50 to 200 nM.
Regarding `NCC1Oc2cc(Cl)cc(-c3ccccc3F)c2O1` (centres unmarked) [Compound I-93, [6-Chloro-4-(2-fluoro-phenyl)-benzo[1,3]dioxol-2-yl]-methylamine], the Ki in data set [1] (setting [3]) lay in the range of 50 to 200 nM.
In the case of `COc1ccc(Cl)cc1-c1cc(Cl)cc2c1OC(CN)O2` (centres unmarked) [Compound I-94, [6-Chloro-4-(2-methoxy-5-chloro-phenyl)-benzo[1,3]dioxol-2-yl]-methylamine], the Ki in data set [1] (setting [3]) is more than 200 nM.
Regarding `COc1cccc(-c2cc(Cl)cc3c2OC(CN)O3)c1OC` (centres unmarked) [Compound I-95, [6-Chloro-4-(2,3-dimethoxy-phenyl)-benzo[1,3]dioxol-2-yl]-methylamine], in data set [1] (setting [3]), the Ki fell in the range of 50 to 200 nM.
As to `Cc1cc(Cl)ccc1-c1cc(Cl)cc2c1OC(CN)O2` (centres unmarked) [Compound I-97, [6-Chloro-4-(4-chloro-2-methyl-phenyl)-benzo[1,3]dioxol-2-yl]-methylamine], in data set [1] (setting [3]), the Ki lay within 50 to 200 nM.
The same measure, in the same setting: the same measure for `NCC1Oc2cc(Cl)cc(-c3cc(F)ccc3F)c2O1` (centres unmarked) [Compound I-99, [6-Chloro-4-(2,5-difluoro-phenyl)-benzo[1,3]dioxol-2-yl]-methylamine]: 50 to 200 nM.
Same read-out and setting: then `COc1ccc(OC)c(-c2cc(Cl)cc3c2OC(CN)O3)c1` (centres unmarked) [Compound I-100, [6-Chloro-4-(2,5-dimethoxy-phenyl)-benzo[1,3]dioxol-2-yl]-methylamine], with more than 200 nM.
For `CSc1ccc2c(c1)C(N1CCN(C)CC1)Cc1ccccc1S2` (centres unmarked) [Methiothepin, reference compound], in data set [1] (reference compounds, 95% confidence interval in the next column, read-out: Ki), the Ki turned out to be 4.6 nM.
